US6737383B1, “Herbicidal oxadiazolidines” (priority 1999, dated 2004)

Key:
blackgrass = experiment: Test B pre/postemergence blackgrass; format: in vivo, Alopecurus myosuroides; conditions: for Blackgrass plant response rating: scale of 0 to 10 where 0 is no effect and 10 is complete control
Summary of the method: (§1)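 Test chemicals in a non-phytotoxic solvent mixture with surfactant were sprayed preemergence onto planted seeds and postemergence onto plants 2 to 18 cm tall (1- to 4-leaf stage). After twelve to sixteen days in a greenhouse, injury was visually rated against untreated controls from 0 (no effect) to 10 (complete control).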

surinam grass = experiment: Test B pre/postemergence surinam grass; format: in vivo, Brachiaria decumbens; conditions: for B. signalgrass plant response rating: scale of 0 to 10 where 0 is no effect and 10 is complete control
Summary of the method: as §1

cocklebur = experiment: Test B pre/postemergence cocklebur; format: in vivo, Xanthium strumarium; conditions: for Cocklebur plant response rating: scale of 0 to 10 where 0 is no effect and 10 is complete control
Summary of the method: as §1

corn = experiment: Test B pre/postemergence corn; format: in vivo, Zea mays; conditions: for Corn plant response rating: scale of 0 to 10 where 0 is no effect and 10 is complete control
Summary of the method: as §1

crabgrass = experiment: Test B pre/postemergence crabgrass; format: in vivo, Digitaria sanguinalis; conditions: for Crabgrass plant response rating: scale of 0 to 10 where 0 is no effect and 10 is complete control
Summary of the method: as §1

giant foxtail = experiment: Test B pre/postemergence giant foxtail; format: in vivo, Setaria faberii; conditions: for Giant foxtail plant response rating: scale of 0 to 10 where 0 is no effect and 10 is complete control
Summary of the method: as §1

morningglory = experiment: Test B pre/postemergence morningglory; format: in vivo, Ipomoea hederacea; conditions: for Morningglory plant response rating: scale of 0 to 10 where 0 is no effect and 10 is complete control
Summary of the method: as §1

pigweed = experiment: Test B pre/postemergence pigweed; format: in vivo, Amaranthus retroflexus; conditions: for Redroot pigweed plant response rating: scale of 0 to 10 where 0 is no effect and 10 is complete control
Summary of the method: as §1

soybean = experiment: Test B pre/postemergence soybean; format: in vivo, Glycine max; conditions: for Soybean plant response rating: scale of 0 to 10 where 0 is no effect and 10 is complete control
Summary of the method: as §1

velvetleaf = experiment: Test B pre/postemergence velvetleaf; format: in vivo, Abutilon theophrasti; conditions: for Velvetleaf plant response rating: scale of 0 to 10 where 0 is no effect and 10 is complete control
Summary of the method: as §1

wheat = experiment: Test B pre/postemergence wheat; format: in vivo, Triticum aestivum; conditions: for Wheat plant response rating: scale of 0 to 10 where 0 is no effect and 10 is complete control
Summary of the method: as §1

wild oat = experiment: Test B pre/postemergence wild oat; format: in vivo, Avena fatua; conditions: for Wild oats plant response rating: scale of 0 to 10 where 0 is no effect and 10 is complete control
Summary of the method: as §1

rice = experiment: Test B flood test rice; format: in vivo, Oryza sativa
Summary of the method: (§2)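 Plants were grown to the 2-leaf stage before treatment with test chemical, then held in a greenhouse for twelve to sixteen days. Injury was visually rated against untreated controls on a 0–10 scale, where 0 is no effect and 10 is complete control.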

smallflower flatsedge = experiment: Test B flood test smallflower flatsedge; format: in vivo, Cyperus difformis
Summary of the method: as §2

bamyardgrass = experiment: Test B flood test barnyardgrass; format: in vivo, Echinochloa crus-galli
Summary of the method: as §2

[1] = Postemergence, Rate 125 g/ha, scale 0 to 10, 0 is no effect, 10 is complete control
[2] = Postemergence, Rate 250 g/ha, scale 0 to 10, 0 is no effect, 10 is complete control
[3] = Preemergence, Rate 62 g/ha, scale 0 to 10 (0 no effect, 10 complete control)
[4] = Rate 500 g/ha, Postemergence, scale 0 to 10, 0 no effect, 10 complete control
[5] = Postemergence (flood test), Rate 125 g/ha, scale 0 to 10, 0 is no effect, 10 is complete control
[6] = Rate 62 g/ha, Postemergence (flood test species), scale of 0 to 10 where 0 is no effect and 10 is complete control
[7] = Rate 62 g/ha, flood test species, Pre-emergence, visual evaluation after twelve to sixteen days
[8] = Rate 125 g/ha, Pre-emergence, flood test species, scale 0 to 10 where 0 is no effect and 10 is complete control
[9] = Rate 250 g/ha, Pre-emergence, flood-test species, scale 0 to 10, 0 is no effect, 10 is complete control
[10] = Rate 500 g/ha, listed under Postemergence (flood test species), scale 0 to 10, 0 no effect, 10 complete control
[11] = Rate 500 g/ha, Pre-emergence, flood test species, scale 0 to 10 (0 no effect, 10 complete control)
[12] = flood test species, listed under Postemergence, Rate 250 g/ha, scale 0 to 10, 0 is no effect, 10 is complete control

Structure (SMILES): CC1CC1n1c(=O)on(C(=O)N(c2ccc(Cl)cc2)C(C)C)c1=O (stereo not drawn) [Compound 369]
- Plant response rating, Blackgrass (blackgrass; [1]): 0
- Plant response rating, Blackgrass (blackgrass; [2]): 5
- Plant response rating, Blackgrass (blackgrass; [3]): 0
- Blackgrass plant response rating (0 to 10 scale) (blackgrass; Preemergence, Rate 125 g/ha): 0
- Blackgrass plant response rating (blackgrass; Preemergence, Rate 250 g/ha): 2
- Blackgrass plant response rating (blackgrass; Preemergence, Rate 500 g/ha): 5
- Blackgrass plant response rating (blackgrass; Rate 62 g/ha, Postemergence): 0
- Plant response rating, Blackgrass (blackgrass; [4]): 5
- Plant response rating, B. signalgrass (surinam grass; [1]): 0
- Plant response rating, B. signalgrass (surinam grass; [2]): 0
- Plant response rating, B. signalgrass (surinam grass; [3]): 0
- B. signalgrass plant response rating (0 to 10 scale, 0 is no effect, 10 is complete control) (surinam grass; Preemergence, Rate 125 g/ha): 0
- B. signalgrass plant response rating (surinam grass; Preemergence, Rate 250 g/ha): 2
- B. signalgrass plant response rating (surinam grass; Preemergence, Rate 500 g/ha): 2
- B. signalgrass plant response rating (surinam grass; Rate 62 g/ha, Postemergence): 0
- Plant response rating, B. signalgrass (surinam grass; [4]): 3
- Plant response rating, Cocklebur (cocklebur; [1]): 0
- Plant response rating, Cocklebur (cocklebur; [2]): 0
- Plant response rating, Cocklebur (cocklebur; [3]): 0
- Cocklebur plant response rating (0 to 10 scale) (cocklebur; Preemergence, Rate 125 g/ha): 0
- Cocklebur plant response rating (cocklebur; Preemergence, Rate 250 g/ha): 0
- Cocklebur plant response rating (cocklebur; Preemergence, Rate 500 g/ha): 0
- Cocklebur plant response rating (cocklebur; Rate 62 g/ha, Postemergence): 0
- Plant response rating, Cocklebur (cocklebur; [4]): 0
- Plant response rating, Corn (corn; [1]): 0
- Plant response rating, Corn (corn; [2]): 0
- Plant response rating, Corn (corn; [3]): 0
- Corn plant response rating (0 to 10 scale) (corn; Preemergence, Rate 125 g/ha): 0
- Corn plant response rating (corn; Preemergence, Rate 250 g/ha): 0
- Corn plant response rating (corn; Preemergence, Rate 500 g/ha): 0
- Corn plant response rating (corn; Rate 62 g/ha, Postemergence): 0
- Plant response rating, Corn (corn; [4]): 0
- Plant response rating, Crabgrass (crabgrass; [1]): 0
- Plant response rating, Crabgrass (crabgrass; [2]): 2
- Plant response rating, Crabgrass (crabgrass; [3]): 5
- Crabgrass plant response rating (0 to 10 scale) (crabgrass; Preemergence, Rate 125 g/ha): 7
- Crabgrass plant response rating (crabgrass; Preemergence, Rate 250 g/ha): 9
- Crabgrass plant response rating (crabgrass; Preemergence, Rate 500 g/ha): 10
- Crabgrass plant response rating (crabgrass; Rate 62 g/ha, Postemergence): 0
- Plant response rating, Crabgrass (crabgrass; [4]): 9
- Plant response rating, Giant foxtail (giant foxtail; [1]): 0
- Plant response rating, Giant foxtail (giant foxtail; [2]): 2
- Plant response rating, Giant foxtail (giant foxtail; [3]): 8
- Giant foxtail plant response rating (0 to 10 scale) (giant foxtail; Preemergence, Rate 125 g/ha): 9
- Giant foxtail plant response rating (giant foxtail; Preemergence, Rate 250 g/ha): 10
- Giant foxtail plant response rating (giant foxtail; Preemergence, Rate 500 g/ha): 10
- Giant foxtail plant response rating (giant foxtail; Rate 62 g/ha, Postemergence): 0
- Plant response rating, Giant foxtail (giant foxtail; [4]): 9
- Plant response rating, Morningglory (morningglory; [1]): 10
- Plant response rating, Morningglory (morningglory; [2]): 10
- Plant response rating, Morningglory (morningglory; [3]): 0
- Morningglory plant response rating (0 to 10 scale) (morningglory; Preemergence, Rate 125 g/ha): 0
- Morningglory plant response rating (morningglory; Preemergence, Rate 250 g/ha): 0
- Morningglory plant response rating (morningglory; Preemergence, Rate 500 g/ha): 0
- Morningglory plant response rating (morningglory; Rate 62 g/ha, Postemergence): 7
- Plant response rating, Morningglory (morningglory; [4]): 10
- Plant response rating, Redroot pigweed (pigweed; [1]): 0
- Plant response rating, Redroot pigweed (pigweed; [2]): 0
- Plant response rating, Redroot pigweed (pigweed; [3]): 0
- Redroot pigweed plant response rating (0 to 10 scale) (pigweed; Preemergence, Rate 125 g/ha): 4
- Redroot pigweed plant response rating (pigweed; Preemergence, Rate 250 g/ha): 10
- Redroot pigweed plant response rating (pigweed; Preemergence, Rate 500 g/ha): 10
- Redroot pigweed plant response rating (pigweed; Rate 62 g/ha, Postemergence): 0
- Plant response rating, Redroot pigweed (pigweed; [4]): 4
- Plant response rating, Soybean (soybean; [1]): 0
- Plant response rating, Soybean (soybean; [2]): 1
- Plant response rating, Soybean (soybean; [3]): 0
- Soybean plant response rating (0 to 10 scale) (soybean; Preemergence, Rate 125 g/ha): 0
- Soybean plant response rating (soybean; Preemergence, Rate 250 g/ha): 0
- Soybean plant response rating (soybean; Preemergence, Rate 500 g/ha): 4
- Soybean plant response rating (soybean; Rate 62 g/ha, Postemergence): 0
- Plant response rating, Soybean (soybean; [4]): 1
- Plant response rating, Velvetleaf (velvetleaf; [1]): 0
- Plant response rating, Velvetleaf (velvetleaf; [2]): 0
- Plant response rating, Velvetleaf (velvetleaf; [3]): 0
- Velvetleaf plant response rating (0 to 10 scale) (velvetleaf; Preemergence, Rate 125 g/ha): 0
- Velvetleaf plant response rating (velvetleaf; Preemergence, Rate 250 g/ha): 0
- Velvetleaf plant response rating (velvetleaf; Preemergence, Rate 500 g/ha): 6
- Velvetleaf plant response rating (velvetleaf; Rate 62 g/ha, Postemergence): 0
- Plant response rating, Velvetleaf (velvetleaf; [4]): 3
- Plant response rating, Wheat (wheat; [1]): 0
- Plant response rating, Wheat (wheat; [2]): 0
- Plant response rating, Wheat (wheat; [3]): 0
- Wheat plant response rating (0 to 10 scale) (wheat; Preemergence, Rate 125 g/ha): 0
- Wheat plant response rating (wheat; Preemergence, Rate 250 g/ha): 0
- Wheat plant response rating (wheat; Preemergence, Rate 500 g/ha): 0
- Wheat plant response rating (wheat; Rate 62 g/ha, Postemergence): 0
- Plant response rating, Wheat (wheat; [4]): 4
- Plant response rating, Wild oats (wild oat; [1]): 0
- Plant response rating, Wild oats (wild oat; [2]): 0
- Plant response rating, Wild oats (wild oat; [3]): 0
- Wild oats plant response rating (0 to 10 scale) (wild oat; Preemergence, Rate 125 g/ha): 0
- Wild oats plant response rating (wild oat; Preemergence, Rate 250 g/ha): 0
- Wild oats plant response rating (wild oat; Preemergence, Rate 500 g/ha): 7
- Wild oats plant response rating (wild oat; Rate 62 g/ha, Postemergence): 0
- Plant response rating, Wild oats (wild oat; [4]): 4
- Plant response rating, Rice (rice; [5]): 0
- Rice plant response rating (rice; [6]): 0
- Plant response rating, Rice (0 to 10 scale, 0 is no effect, 10 is complete control) (rice; [7]): 0
- Rice plant response rating (rice; [8]): 0
- Rice plant response rating (rice; [9]): 0
- Plant response rating, Rice (rice; [10]): 0
- Rice plant response rating (rice; [11]): 0
- Plant response rating, Rice (rice; [12]): 0
- Plant response rating, S. Flatsedge (smallflower flatsedge; [5]): 2
- S. Flatsedge plant response rating (smallflower flatsedge; [6]): 0
- Plant response rating, S. Flatsedge (0 to 10 scale, 0 is no effect, 10 is complete control) (smallflower flatsedge; [7]): 0
- S. Flatsedge plant response rating (smallflower flatsedge; [8]): 0
- S. Flatsedge plant response rating (smallflower flatsedge; [9]): 0
- Plant response rating, S. Flatsedge (smallflower flatsedge; [10]): 4
- S. Flatsedge plant response rating (smallflower flatsedge; [11]): 0
- Plant response rating, S. Flatsedge (smallflower flatsedge; [12]): 2
- Plant response rating, Barnyardgrass (bamyardgrass; [5]): 0
- Barnyardgrass plant response rating (bamyardgrass; [6]): 0
- Plant response rating, Barnyardgrass (0 to 10 scale, 0 is no effect, 10 is complete control) (bamyardgrass; [7]): 0
- Barnyardgrass plant response rating (bamyardgrass; [8]): 0
- Barnyardgrass plant response rating (bamyardgrass; [9]): 0
- Plant response rating, Barnyardgrass (bamyardgrass; [10]): 2
- Barnyardgrass plant response rating (bamyardgrass; [11]): 0
- Plant response rating, Barnyardgrass (bamyardgrass; [12]): 0
